# Calls of active or inactive are those of the source. The calls are words filed in the database; no cut-off is given here.
# Tests used:
# A549 [1] = experiment: Phototoxicity in human A549 cells assessed as reduction in cell viability at upto 20 uM preincubated for 1 hr followed by light irradiation with 808nm laser 1.5 W/cm2 for 10 mins and measured after 4 hrs by Live/Dead dye staining assay; type: functional, cell-based; settings: time 310.0 min
# A549 [2] = experiment: Phototoxicity in human A549 cells assessed as cell viability at 20 uM pre-irradiated with 808nm laser 1.5 W/cm2 for 10 mins and measured after 12 hrs by MTT assay relative to control; type: functional; settings: A549, light or radiation study, 12.17 h, time 730 min, read-out: Activity
# A549 [3] = experiment: Phototoxicity in human A549 cells assessed as cell viability at 10 uM pre-irradiated with 808nm laser 1.5 W/cm2 for 10 mins and measured after 12 hrs by MTT assay relative to control; type: functional; settings: A549, light or radiation study, 12.17 h, time 730 min, read-out: Activity
# A549 [4] = experiment: Induction of singlet oxygen production in human A549 cells at 10 uM preincubated for 65 mins followed by light irradiation with 808nm laser 1.5 W/cm2 for 10 mins by DCF-DA staining based confocal microscopy analysis; type: functional, cell-based; settings: time 75.0 min
# A549 [5] = experiment: Induction of apoptosis in human A549 cells under light irradiation with 808nm laser 1.5 W/cm2 for 10 mins by annexin V-FITC/propidium iodide staining based flow cytometry; type: functional, cell-based
# A549 [6] = experiment: Phototoxicity in human A549 cells assessed as cell viability at upto 20 uM pre-irradiated with 808nm laser 1.5 W/cm2 for 10 mins and measured after 12 hrs by MTT assay relative to control; type: functional; settings: time 730 min, 12.17 h, up to 20 µM
# [7] = Toxicity in BALB/c mouse assessed as effect on liver at 300 uM, iv pre-irradiated with 808nm laser 1.5 W/cm2 for 10 mins and measured after 14 days by H and E staining based analysis; type: organism-based; settings: in vivo, 336 h, time 14 day
# HeLa [8] = experiment: Cytotoxicity against human HeLa cells assessed as survival rate measured after 12 hrs relative to control; type: functional
# A549 [9] = experiment: Phototoxicity in human A549 cells assessed as decrease in survival rate at upto 10 uM pre-irradiated with 808nm laser 1.5 W/cm2 for 10 mins and measured after 12 hrs by MTT assay; type: functional, cell-based; settings: time 730.0 min
# A549 [10] = experiment: Antitumor activity against human A549 cells xenografted in BALB/c mouse model assessed as decrease in fluorescence signal at 300 uM, iv measured upto 120 mins; type: functional, organism-based
# A549 [11] = experiment: Antitumor activity against human A549 cells xenografted in BALB/c mouse model assessed as reduction in fluorescence in lung at 300 uM, iv measured after 120 mins; type: functional, organism-based
# A549 [12] = experiment: Antimigratory activity against human A549 cells measured upto 18 hrs by wound healing assay; type: functional, cell-based
# [13] = Toxicity in BALB/c mouse assessed as effect on heart at 300 uM, iv pre-irradiated with 808nm laser 1.5 W/cm2 for 10 mins and measured after 14 days by H and E staining based analysis; type: organism-based; settings: in vivo, 336 h, time 14 day
# A549 [14] = experiment: Antitumor activity against human A549 cells xenografted in BALB/c mouse model assessed as reduction in fluorescence in liver at 300 uM, iv measured after 120 mins; type: functional, organism-based
# [15] = Toxicity in BALB/c mouse assessed as effect on spleen at 300 uM, iv pre-irradiated with 808nm laser 1.5 W/cm2 for 10 mins and measured after 14 days by H and E staining based analysis; type: organism-based; settings: in vivo, 336 h, time 14 day
# [16] = Toxicity in BALB/c mouse assessed as effect on tumor at 300 uM, iv pre-irradiated with 808nm laser 1.5 W/cm2 for 10 mins and measured after 14 days by H and E staining based analysis; type: organism-based; settings: in vivo, 336 h, time 14 day
# A549 [17] = experiment: Phototoxicity in human A549 cells assessed as reduction in cell viability at 10 uM preincubated for 1 hr followed by light irradiation with 808nm laser 1.5 W/cm2 for 10 mins and measured after 4 hrs in presence of Na3VO4 by Live/Dead dye staining assay; type: functional, cell-based; settings: time 310.0 min
# A549 [18] = experiment: Photosensitization activity against human A549 cells overexpressing ALP assessed as increase in fluorescence intensity at 10 uM measured upto 60 mins by confocal fluorescent imaging based analysis; type: functional, cell-based
# [19] = Induction of singlet oxygen production of the compound assessed as decrease in DPBF absorbance under laser irradiation with 808nm laser 1.5 W/cm2 for upto 15 mins in presence of alkaline phosphatase; type: physicochemical; settings: isolated protein, 0.25 h
# A549 [20] = experiment: Phototoxicity in human A549 cells assessed as decrease in survival rate at 10 uM pre-irradiated with 808nm laser 1.5 W/cm2 for 10 mins and measured after 12 hrs by MTT assay relative to control; type: functional; settings: A549, light or radiation study, 12.17 h, time 730 min, read-out: Survival
# HeLa [21] = experiment: Phototoxicity in human HeLa cells assessed as decrease in survival rate at 10 uM pre-irradiated with 808nm laser 1.5 W/cm2 for 10 mins and measured after 12 hrs by MTT assay relative to control; type: functional; settings: light or radiation study, 12.17 h, time 730 min, read-out: Survival
# L02 = experiment: Photosensitization activity against human L02 cells overexpressing ALP assessed as increase in fluorescence intensity at 10 uM pretreated with MgCl2 for 1 hr followed by compound addition by confocal fluorescent imaging based analysis; type: functional, cell-based
# [22] = Cytotoxicity against human L02 cells assessed as survival rate measured after 12 hrs by MTT assay relative to control; type: toxicity, cell-based; settings: read-out: Survival
# [23] = Toxicity in BALB/c mouse assessed as effect on lung at 300 uM, iv pre-irradiated with 808nm laser 1.5 W/cm2 for 10 mins and measured after 14 days by H and E staining based analysis; type: organism-based; settings: in vivo, 336 h, time 14 day
# A549 [24] = experiment: Antitumor activity against human A549 cells xenografted in BALB/c mouse model assessed as reduction in fluorescence in spleen at 300 uM, iv measured after 120 mins; type: functional, organism-based
# A549 [25] = experiment: Cytotoxicity against human A549 cells assessed as survival rate measured after 12 hrs relative to control; type: functional
# A549 [26] = experiment: Antitumor activity against human A549 cells xenografted in BALB/c mouse model assessed as reduction in fluorescence in kidney at 300 uM, iv measured after 120 mins; type: functional, organism-based
# A549 [27] = experiment: Antitumor activity against human A549 cells xenografted in BALB/c mouse model assessed as reduction in fluorescence in heart at 300 uM, iv measured after 120 mins; type: functional, organism-based
# A549 [28] = experiment: Photosensitization activity against human A549 cells overexpressing ALP assessed as increase in fluorescence intensity at 10 uM pretreated with Na3VO4 for 1 hr followed by compound addition and measured upto 60 mins by confocal fluorescent imaging based analysis; type: functional, cell-based; settings: time <= 60.0 […]
# [29] = Toxicity in BALB/c mouse assessed as effect on body weight loss at 300 uM, iv pre-irradiated with 808nm laser 1.5 W/cm2 for 10 mins and measured after 14 days by H and E staining based analysis; type: organism-based; settings: in vivo, 336 h, time 14 day
# A549 [30] = experiment: Induction of singlet oxygen production in human A549 cells assessed as increase in fluorescent signal at 10 uM preincubated for 65 mins followed by light irradiation with 808nm laser 1.5 W/cm2 for 10 mins in presence of Na3VO4 by DCF-DA staining based confocal microscopy analysis; type: functional, cell-based; settings: time 75.0 min
# A549 [31] = experiment: Antitumor activity against human A549 cells xenografted in BALB/c mouse model assessed as inhibition of tumor growth at 300 uM, iv pre-irradiated with 808nm laser 1.5 W/cm2 for 10 mins and measured daily for 14 days; type: functional, organism-based; settings: time 14.0 day
# [32] = Toxicity in BALB/c mouse assessed as effect on kidney at 300 uM, iv pre-irradiated with 808nm laser 1.5 W/cm2 for 10 mins and measured after 14 days by H and E staining based analysis; type: organism-based; settings: in vivo, 336 h, time 14 day
# HeLa [33] = experiment: Phototoxicity in human HeLa cells assessed as decrease in survival rate at upto 10 uM pre-irradiated with 808nm laser 1.5 W/cm2 for 10 mins and measured after 12 hrs by MTT assay; type: functional, cell-based; settings: time 730.0 min
smiles,measurement,setting,value
CC[N+]1=C(/C=C/C2=C3Oc4cc(O)c(Br)cc4C=C3CCC2)C(C)(C)c2cc(Br)ccc21,Activity,A549 [1],Active
same,viability at 20 µM,A549 [2],< 20%
same,viability at 10 µM,A549 [3],40%
same,Activity,A549 [4],Active
same,Activity,A549 [5],Active
CC[N+]1=C(/C=C/C2=C3Oc4cc(O)c(Br)cc4C=C3CCC2)C(C)(C)c2ccccc21.[I-],Activity,A549 [6],>85%
CC[N+]1=C(/C=C/C2=C3Oc4cc(OP(=O)(O)O)c(Br)cc4C=C3CCC2)C(C)(C)c2cc(Br)ccc21.[I-],Activity,[7],Non-Toxic
same,Survival,HeLa [8],>85%
same,Activity,A549 [9],Active
same,Activity,A549 [10],inactive
same,Activity,A549 [11],Active
same,Activity,A549 [12],inactive
same,Activity,[13],Non-Toxic
same,Activity,A549 [14],Active
same,Activity,[15],Non-Toxic
same,Activity,[16],Non-Toxic
same,Activity,A549 [17],Active
same,Activity,A549 [18],Active
same,Activity,[19],Active
same,viability at 10 µM,A549 [20],< 40%
same,viability at 10 µM,HeLa [21],< 40%
same,Activity,L02,Active
same,viability at 12 h,[22],> 85%
same,Activity,[23],Non-Toxic
same,Activity,A549 [24],Active
same,Activity,A549 [4],Active
same,Survival,A549 [25],>85%
same,Activity,A549 [26],Active
same,Activity,A549 [27],Active
same,Activity,A549 [5],Active
same,Activity,A549 [28],inactive
same,Activity,[29],Non-Toxic
same,Activity,A549 [30],inactive
same,AC30,A549 [31],Active
same,Activity,[32],Non-Toxic
same,Activity,HeLa [33],Active
CC[N+]1=C(/C=C/C2=C3Oc4cc(O)ccc4C=C3CCC2)C(C)(C)c2ccccc21.[I-],Activity,A549 [6],>85%
CC[N+]1=C(/C=C/C2=C3Oc4cc(O)ccc4C=C3CCC2)C(C)(C)c2cc(Br)ccc21.[I-],Activity,A549 [6],>85%
